Experimental findings from US8268306B2, “Pesticidal and antiparasitic compositions” (Centro de Ingenieria Genetica y Biotecnologia, priority 2001, dated 2012) are described below.

For one experiment, the system named is Haemonchus spp. Put plainly: In vitro nematicidal effect of hydrogen sulfide and chitinase, egg hatching. It counts as cell-based. The note with it: Haemonchus eggs, emerging larvae after 24 hours; fraction E = 1 − Ntto/Nc; mean of 4 replicas. The method, then: (§1) Eggs from zoonematodes Haemonchus spp and Trichostrongylus colubriformis and Dictyocaulus viviparus were used, as well as parasitic phytonematode larvae (juveniles 2) from Melodoigyne incognita.
(§2) Collections of Haemonchus spp and Trichostrongylus colubriformis nematodes were made from ovine (sheep) and bovine (cattle) abomasa, respectively. The adult female nematodes were washed in a physiological solution and treated with “Hibitane” (Chlorhexidine Acetate) at 0.5%, for 1 minute, the process developed at 37° C. Approximately 100 previously disinfected individuals were introduced into an Erlenmeyer containing 50 ml of LB medium solution, diluted 10 times in distilled sterile water, and were left laying their eggs overnight (8-10 hours).
(§3) From that moment on, manipulation was done under aseptic conditions in a vertical laminar flow, using 24-well tissue culture plates. The total volume of the medium that contained the females and the eggs was filtered with a sift net of 60 μm. The nematode eggs were trapped on the 30 μm net of a second sifts. It was introduced into a Hibitane solution at 0.5% for 3 minutes, followed by three washes with LB medium diluted 10 times in sterile distilled water.
(§4) Once disinfected, the eggs were removed from the sift and were carefully resuspended with a LB medium solution diluted 10 times in sterile distilled water. The final result of the distribution was checked by counting and registering the eggs in each well with an inverted Olympus microscope, observations of the uniformity of the evolutionary state in this phase were made too.
(§5) The Haemonchus spp and T. colubriformis' eggs hatch between 24 and 48 hours of incubation at 28° C., whereas the D. vivparus' eggs hatch before 24 hours. A good sample preparation is accomplished when in all the untreated controls more than 60% of hatching occurs in the previously foreseen times for each species.
(§6) The nematode's eggs and larvae were placed in a number of 100 individuals in approximately 2 ml of LB medium diluted 10 times. This volume was introduced into safety valves that allow the air to go through the liquid and, therefore, the gasses make contact with the eggs and larvae. Every valve was a replica for each treatment.
(§7) The hydrogen sulfide was obtained by a reaction against the chloride acid of two sulfide salts (Na2S and FeS), and from an anaerobial fermentation of bacterium Desulfovibrio desulfuricans subs. desulfuricans ATCC 27774 (isolated from an ovine rumen). The chitinolytic enzyme used was chitinase SIGMA C 1650, from bacterium Serratia marcescens.
(§8) The nematode's eggs and larvae under the study were subjected to the following treatments for 24 hours:
(§9) 1. Control treatment: chitinase not applied, and air circulated through the valve.
(§10) 2. Chitinase treatment: chitinase at a rate of 0.2 units per replica.
(§11) 3. Sulfide treatment: hydrogen sulfide from Na2S with a 0.2 flux at 0.3 mg/minute.
(§12) 4. Sulfide treatment: hydrogen sulfide from FeS with a 0.2 flux at 0.3 mg/minute.
(§13) 5. Sulfide treatment: hydrogen sulfide from Desulfovibrio desulfuricans with a 0.2 flux at 0.3 mg/minute.
(§14) 6. Combined treatment: simultaneous application of treatments 2 and 3.
(§15) 7. Combined treatment: simultaneous application of treatments 2 and 4.
(§16) 8. Combined treatment: simultaneous application of treatments 2 and 5.
(§17) All the above treatments had 4 replicas.
(§18) Twenty-four hours after starting the experiment the emerging larvae (Haemonchus sp., T. colubriformis and D. viviparous) and the number of live larvae (Melodogyne incognita) in all the treatments, were counted. This value is the mean of the 4 replicas in every treatment. The variance analysis (ANOVA) was applied to the results obtained in each nematode species in the study, separately; the Duncan test (Lerch G. 1977. La Experimentación en las ciencias biológicas y agrícolas. 1^ra edición, p.p. 203-308, Editorial Científico-Técnica, La Habana) was applied, which is also shown in table 1. […]

Experiment [1] has as its system Trichostrongylus colubriformis. Described as above. It counts as cell-based. Particulars: Trichostrongilus eggs, emerging larvae after 24 hours; fraction E = 1 − Ntto/Nc; mean of 4 replicas. As to the method:
as §1, §2, §3, §4, §5, §6, §7, §8, §9, §10, §11, §12, §13, §14, §15, §16, §17, §18

The next experiment concerns Dictyocaulus viviparus. The experiment is described as above. It counts as cell-based. Particulars: Dictyocaulus eggs, emerging larvae after 24 hours; fraction E = 1 − Ntto/Nc; mean of 4 replicas. As to the method:
as §1
Collections of D. viviparous nematode were made from the infested lung of a bovine (cattle), previously sacrificed. The same procedure was used for Haemochus spp. and T. colubriformis; however, the females were allowed to lay their eggs for 2-3 hours.
as §3, §4, §5
The nematode's eggs and larvae were placed in a number of 100 individuals in approximately 2 ml of LB medium diluted 10 times. This volume was introduced into safety valves that allow the air to go through the liquid and, therefore, the gasses make contact with the eggs and larvae. […]
(§19) Twenty-four hours after starting the experiment the emerging larvae (Haemonchus sp., T. colubriformis and D. viviparous) and the number of live larvae (Melodogyne incognita) in all the treatments, were counted. […]

For the next experiment, the system named is Melodoigyne incognita. Put plainly: In vitro nematicidal effect of hydrogen sulfide and chitinase, live larvae (juveniles 2). The note with it: Meloidogyne larvae, live larvae after 24 hours; fraction E = 1 − Ntto/Nc; mean of 4 replicas. The format is cell-based, Meloidogyne incognita. The method, then:
as §1
The collection of egg mass of Meloidogyne incognita was performed from squash roots (Cucurbita pepo), previously infested and cultivated in greenhouses. For this operation a stereoscope microscope and needles with properly altered tips were used. The masses were put in sterile distilled water in Petri dishes at 28° C., in a number of 50 masses per dish. Daily observations were made to check egg hatching. In approximately 72 hours, there were enough larvae to start collecting and disinfecting.
The total volume of water containing the egg masses and the larvae were filtered through a sift net of 60 μm. From that moment on all the manipulation was done under aseptic conditions in a vertical laminar flow, using 24-well tissue culture plates. The eggs detached from the mass were unable to hatch and remained on the sift net of 30 μm; the larvae were collected with a further net of 5 μm. It was introduced into a Hibitane solution at 0.5% for 3 minutes followed by 3 washes with LB medium diluted 10 times in sterile distilled water. Once disinfected, the Meloidogyne incognita larvae were removed from the sift net and carefully resuspended with a LB medium solution diluted 10 times in sterile distilled water. The final collecting and disinfecting results were checked by counting and registering the live larvae with an inverted Olympus microscope.
The nematode's eggs and larvae were placed in a number of 100 individuals in approximately 2 ml of LB medium diluted 10 times. This volume was introduced into safety valves that allow the air to go through the liquid and, therefore, the gasses make contact with the eggs and larvae. Every valve was a replica for each treatment. […]
as §19

For `S` [3. Esn, hydrogen sulfide], the “Treatment effectiveness (E)” value in the experiment on Haemonchus spp is listed as 0.41; in experiment [1], 0.40; in the experiment on Dictyocaulus viviparus it was 0.44; in the experiment on Melodoigyne incognita, 0.51.

As for `S` [4. Esf, hydrogen sulfide], the “Treatment effectiveness (E)” value is given as 0.40 with Haemonchus spp, 0.39 in experiment [1], 0.42 in the experiment with Dictyocaulus viviparus and 0.52 with Melodoigyne incognita.

With `S` [5. Esd, hydrogen sulfide], the “Treatment effectiveness (E)” value with Haemonchus spp is reported as 0.37; in experiment [1], 0.38; with Dictyocaulus viviparus, 0.40; in the experiment with Melodoigyne incognita it was 0.47.
